Tests used:
Format in all cases: cell-based
[1] = tested on: Acinetobacter baumannii, which is a normal strain; experiment: Rezazurin assay, MIC and MBC, normal strain (control)
[2] = tested on: carbapenem-resistant Acinetobacter baumannii (KUMC.2014.90); experiment: Rezazurin assay, MIC and MBC, carbapenem-resistant strain KUMC.2014.90
[3] = tested on: carbapenem-resistant Acinetobacter baumannii (KUMC.2014.91); experiment: Rezazurin assay, MIC and MBC, carbapenem-resistant strain KUMC.2014.91

## CC1(C)S[C@@H]2[C@H](NC(=O)[C@H](N)c3ccccc3)C(=O)N2[C@H]1C(=O)O [Ampicillin]
[1]
  growth inhibition (in words): inhibited the growth
[1]; 50% inhibitory concentration, testing range 0.45~500
  MIC50: < 31.3 µg/mL
[1]; 80% inhibitory concentration, testing range 0.45~500
  MIC80: < 62.5 µg/mL
[1]; testing range 0.45~500
  MBC: < 62.5 µg/mL
[2]; Acinetobacter baumannii (KUMC.2014.90), 50% inhibitory concentration, testing range 0.45~500
  MIC 50%: No effect
[2]; Acinetobacter baumannii (KUMC.2014.90), 80% inhibitory concentration, testing range 0.45~500
  MIC 80%: No effect
[2]; Acinetobacter baumannii (KUMC.2014.90), testing range 0.45~500
  MBC: No effect
[2]; carbapenem-resistant KUMC.2014.90 strain
  growth inhibition (in words): unable to inhibit the growth
[3]; Acinetobacter baumannii (KUMC.2014.91), 50% inhibitory concentration, testing range 0.45~500
  MIC 50%: No effect
[3]; Acinetobacter baumannii (KUMC.2014.91), 80% inhibitory concentration, testing range 0.45~500
  MIC 80%: No effect
[3]; Acinetobacter baumannii (KUMC.2014.91), testing range 0.45~500
  MBC: No effect
[3]; carbapenem-resistant KUMC.2014.91 strain
  growth inhibition (in words): unable to inhibit the growth

Reference: US10792340B2, “Antibacterial composition for combating carbapenem-resistant gram-negative bacteria comprising ADK protein as active ingredient” (KONKUK UNIVERSITY GLOCAL INDUSTRY-ACADEMIC COLLABORATION …, priority 2015, dated 2020)
